Data published in US20250381168A1, “VLA4 INHIBITORS AND USES THEREOF” (Washington University, priority 2022, published 2025).
“Also recorded” adds a separate entry of the source. Like-named read-outs stand apart in the source and are kept apart here.

Key:
VLA-4 (a4b1) = VLA-4 (a4b1) (Homo sapiens (Human), UniProt P05556+P13612); assay: sVCAM flow cytometry cell-based assay (inhibition of soluble VCAM-1 binding to G2 ALL cells);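 also: compounds at 0.1 to 1000 nM preincubated 30 min with G2 ALL cells, then VCAM/Fc added for 30 min, bound VCAM-1 detected by PE secondary antibody, percent binding cells by flow cytometry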
Sequence of VLA-4 (a4b1) (P13612 34-1032): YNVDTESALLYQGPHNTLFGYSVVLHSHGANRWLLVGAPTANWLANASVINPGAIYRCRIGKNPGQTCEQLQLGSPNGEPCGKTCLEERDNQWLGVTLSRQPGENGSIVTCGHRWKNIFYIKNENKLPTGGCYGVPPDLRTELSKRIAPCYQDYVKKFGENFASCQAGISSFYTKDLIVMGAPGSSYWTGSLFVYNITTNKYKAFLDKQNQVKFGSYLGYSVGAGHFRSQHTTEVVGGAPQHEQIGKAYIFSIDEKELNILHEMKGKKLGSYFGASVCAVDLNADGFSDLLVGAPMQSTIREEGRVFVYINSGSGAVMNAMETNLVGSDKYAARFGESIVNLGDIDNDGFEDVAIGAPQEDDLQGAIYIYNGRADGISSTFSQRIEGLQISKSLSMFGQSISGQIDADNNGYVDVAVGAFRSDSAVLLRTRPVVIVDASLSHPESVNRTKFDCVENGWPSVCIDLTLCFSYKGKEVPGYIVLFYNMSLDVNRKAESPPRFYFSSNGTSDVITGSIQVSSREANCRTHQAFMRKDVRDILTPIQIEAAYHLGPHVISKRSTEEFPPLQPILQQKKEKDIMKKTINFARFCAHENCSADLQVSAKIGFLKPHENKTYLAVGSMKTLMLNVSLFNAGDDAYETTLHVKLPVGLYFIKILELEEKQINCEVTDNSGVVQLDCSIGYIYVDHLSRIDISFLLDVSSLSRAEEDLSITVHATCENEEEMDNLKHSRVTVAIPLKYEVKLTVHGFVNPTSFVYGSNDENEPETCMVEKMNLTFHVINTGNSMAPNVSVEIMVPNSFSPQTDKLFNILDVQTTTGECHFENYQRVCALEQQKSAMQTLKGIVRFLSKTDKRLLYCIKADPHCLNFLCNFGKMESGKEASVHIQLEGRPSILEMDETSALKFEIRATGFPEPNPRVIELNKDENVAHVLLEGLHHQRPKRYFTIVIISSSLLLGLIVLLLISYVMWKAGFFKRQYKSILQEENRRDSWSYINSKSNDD
Sequence of VLA-4 (a4b1) (P05556 21-798): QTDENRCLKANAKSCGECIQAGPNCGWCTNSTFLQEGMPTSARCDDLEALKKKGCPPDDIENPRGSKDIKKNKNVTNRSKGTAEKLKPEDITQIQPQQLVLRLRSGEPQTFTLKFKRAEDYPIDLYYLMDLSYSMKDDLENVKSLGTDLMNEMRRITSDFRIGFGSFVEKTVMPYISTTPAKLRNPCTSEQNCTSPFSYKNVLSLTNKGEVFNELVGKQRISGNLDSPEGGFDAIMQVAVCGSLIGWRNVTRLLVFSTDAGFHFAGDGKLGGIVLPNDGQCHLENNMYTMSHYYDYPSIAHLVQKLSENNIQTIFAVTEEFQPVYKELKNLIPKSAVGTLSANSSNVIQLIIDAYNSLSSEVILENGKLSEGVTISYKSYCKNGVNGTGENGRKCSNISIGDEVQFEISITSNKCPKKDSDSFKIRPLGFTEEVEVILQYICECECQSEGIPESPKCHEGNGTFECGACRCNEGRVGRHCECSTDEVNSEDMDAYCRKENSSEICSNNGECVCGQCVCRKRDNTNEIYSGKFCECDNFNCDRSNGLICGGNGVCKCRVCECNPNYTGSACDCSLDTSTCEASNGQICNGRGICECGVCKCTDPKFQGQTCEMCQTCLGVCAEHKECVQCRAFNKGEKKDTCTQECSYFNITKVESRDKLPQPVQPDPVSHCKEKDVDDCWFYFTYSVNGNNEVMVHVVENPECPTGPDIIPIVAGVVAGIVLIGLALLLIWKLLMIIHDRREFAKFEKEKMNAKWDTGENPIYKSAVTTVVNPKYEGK
Description: VLA-4 (a4b1) inhibitor compounds were tested for their ability to inhibit the binding of soluble VCAM-1 to human G2 acute lymphoblastic leukemia (ALL) cells. Briefly, G2 ALL cells are pre-incubated with increasing concentrations (0.1 to 1000 nM) of compounds for 30 minutes. Soluble VCAM/Fc chimera protein (R & D systems) is then added to the mixture and the cells incubated for an additional 30 minutes. Afterwards, cells are washed and VCAM-1 is detected using a PE-conjugated secondary polyclonal antibody. In each experiment, an aliquot of cells are stained with isotype control antibodies to serve as a negative control. The percentage of VCAM-1 binding cells was then determined by flow cytometry.

[1] = tested on: hematopoietic stem/progenitor cells (HSPCs); assay: HSPC mobilization into peripheral blood, colony forming unit (CFU) assay; details: mice
[2] = as listed in TABLE 6, read-out: sVCAM IC50
[3] = inhibition of sVCAM-1 binding to human G2 ALL cells (TABLE 3), read-out: SVCAM-1, IC50
[4] = single s.c. injection, peripheral blood, 0.25 hr post dose (TABLE 6)
[5] = single s.c. injection, peripheral blood, 2 hr post dose (TABLE 6)
[6] = single s.c. injection, peripheral blood, 4 hr post dose (TABLE 6)

Compound	IC50 (VLA-4 (a4b1); [2])	IC50 (VLA-4 (a4b1); [3])	No. CFU (×10^3)/mL ± SD, 0.25 hr [1, 4]	No. CFU (×10^3)/mL ± SD, 2 hr [1, 5]	No. CFU (×10^3)/mL ± SD, 4 hr [1, 6]	HSPC mobilization, result in words ([1]; single dose)	further results
COc1cccc(OC)c1-c1ccc(C[C@H](NC(=O)[C@]2(C)CCCN2S(=O)(=O)c2cc(Cl)cc(Cl)c2)C(=O)O)cc1 [Example C5]	3590 pM	3590 pM	2.78 ± 0.48 (×10^3)/mL	1.38 ± 0.53 (×10^3)/mL	0.31 ± 0.09 (×10^3)/mL		
CCOCc1cc(OC)c(-c2ccc(C[C@H](NC(=O)[C@@H]3CCCN3S(=O)(=O)c3cc(Cl)cc(Cl)c3)C(=O)O)cc2)c(OC)c1 [Example C6]	445 pM	445 pM	2.58 ± 0.65 (×10^3)/mL	2.12 ± 0.70 (×10^3)/mL	0.46 ± 0.20 (×10^3)/mL		
COCCOCCOCCOCc1cc(OC)c(-c2ccc(C[C@H](NC(=O)[C@@H]3CCCN3S(=O)(=O)c3cc(Cl)cc(Cl)c3)C(=O)O)cc2)c(OC)c1 [Example C7]	194 pM	194 pM	2.57 ± 0.62 (×10^3)/mL	2.52 ± 0.37 (×10^3)/mL	0.50 ± 0.18 (×10^3)/mL	returning to baseline by 4 hours and clearly at baseline by 6 hours	IC50 (VLA-4 (a4b1); as listed in TABLE 9, read-out: sVCAM IC50): 194 pM; No. CFU (×10^3)/mL ± SD, 2 hr ([1]; single dose, peripheral blood, 2 hr post dose (TABLE 9)): 2.65 ± 1.39 (×10^3)/mL; No. CFU (×10^3)/mL ± SD, 4 hr ([1]; single dose, peripheral blood, 4 hr post dose (TABLE 9)): 0.44 ± 0.17 (×10^3)/mL; No. CFU (×10^3)/mL ± SD, 6 hr ([1]; single dose, peripheral blood, 6 hr post dose (TABLE 9)): 0.11 ± 0.08 (×10^3)/mL
COc1cc(CO)cc(OC)c1-c1ccc(C[C@H](NC(=O)[C@@H]2CCCN2S(=O)(=O)c2cc(Cl)cc(Cl)c2)C(=O)O)cc1 [Example C8]	199 pM	199 pM	2.74 ± 0.69 (×10^3)/mL	2.10 ± 0.85 (×10^3)/mL	0.42 ± 0.15 (×10^3)/mL	have returned to baseline	IC50 (VLA-4 (a4b1); as listed in TABLE 7, read-out: sVCAM IC50): 199 pM; No. CFU (×10^3)/mL ± SD, 0.5 hr ([1]; single dose, peripheral blood, 0.5 hr post dose (TABLE 7)): 0.85 ± 0.30 (×10^3)/mL; No. CFU (×10^3)/mL ± SD, 2 hr ([1]; single dose, peripheral blood, 2 hr post dose (TABLE 7)): 0.87 ± 0.30 (×10^3)/mL; No. CFU (×10^3)/mL ± SD, 4 hr ([1]; single dose, peripheral blood, 4 hr post dose (TABLE 7)): 0.27 ± 0.36 (×10^3)/mL
COCCOCCOCCOCCOCCOCCOCCOCCOCCOCCOCCOCCOCCOCCOCCOCCOCCOCCOCCOCCOCCOCCOCCOCCn1cc(COCc2cc(OC)c(-c3ccc(C[C@H](NC(=O)[C@@H]4CCCN4S(=O)(=O)c4cc(Cl)cc(Cl)c4)C(=O)O)cc3)c(OC)c2)nn1 [Example C9, (S)-3-(4′-(((1-(2,5,8,11,14,17,20,23,26,29,32,35,38,41,44,47,50,53,56,59,62,65,68,71-tetracosaoxatriheptacontan-73-yl)-1H-1,2,3-triazol-4-yl)methoxy)methyl)-2′,6′-dimethoxy-[1,1′-biphenyl]-4-yl)-2-((S)-1-((3,5-dichlorophenyl)sulfonyl)pyrrolidine-2-carboxamido)propanoic Acid]		579 pM				returning to baseline by 4 hours; also recorded: inferior mobilization at 4 hours compared to Example 3	IC50 (VLA-4 (a4b1); as listed in TABLE 8, read-out: sVCAM IC50): 579 pM; No. CFU (×10^3)/mL ± SD, 0.25 hr ([1]; single dose, peripheral blood, 0.25 hr post dose (TABLE 8)): 3.72 ± 1.18 (×10^3)/mL; No. CFU (×10^3)/mL ± SD, 2 hr ([1]; single dose, peripheral blood, 2 hr post dose (TABLE 8)): 3.09 ± 1.06 (×10^3)/mL; No. CFU (×10^3)/mL ± SD, 4 hr ([1]; single dose, peripheral blood, 4 hr post dose (TABLE 8)): 0.57 ± 0.28 (×10^3)/mL
CCOCc1cc(OC)c(-c2ccc(C[C@H](NC(=O)c3c(F)cccc3F)C(=O)O)cc2)c(OC)c1 [Firategrast, firategrast]							No. CFU (×10^3)/mL ± SD, 1 hr ([1]; single dose, peripheral blood, 1 hr post dose (TABLE 20)): 0.34 ± 0.12 (×10^3)/mL; No. CFU (×10^3)/mL ± SD, 4 hr ([1]; single dose, peripheral blood, 4 hr post dose (TABLE 20)): 0.24 ± 0.14 (×10^3)/mL; No. CFU (×10^3)/mL ± SD, 8 hr ([1]; single dose, peripheral blood, 8 hr post dose (TABLE 20)): 0.24 ± 0.14 (×10^3)/mL
c1cc(CN2CCCNCCNCCCNCC2)ccc1CN1CCCNCCNCCCNCC1 [Plerixafor, plerixafor]							No. CFU (x10^3)/mL ± SD, 4 hr ([1]; single dose alone or in combination with Plerixafor (5 mg/kg s.c.), peripheral blood, 4 hr (TABLE 15)): 1.25 ± 0.30 (x10^3)/mL; No. CFU (x10^3)/mL ± SD, 6 hr ([1]; single dose alone or in combination with Plerixafor (5 mg/kg s.c.), peripheral blood, 6 hr (TABLE 15)): 0.28 ± 0.12 (x10^3)/mL; No. CFU (x10^3)/mL ± SD, 24 hr ([1]; single dose alone or in combination with Plerixafor (5 mg/kg s.c.), peripheral blood, 24 hr (TABLE 15)): 0.22 ± 0.08 (x10^3)/mL
